Source: patent US8835647B2, “2-((R)-2-methylpyrrolidin-2-yl)-1H-benzimidazole-4-carboxamide crystalline form 1” (AbbVie Inc., priority 2007, dated 2014)

How the values were obtained:
[1] = at 25° C.
tumor = tumor bearing animals; cited from earlier work

Structure (SMILES) | thermodynamic stability of crystalline form [1] | tumor growth (tumor)
C[C@]1(c2nc3c(C(N)=O)cccc3[nH]2)CCCN1 [ABT-888 Crystalline Form 1, 2-((R)-2-Methylpyrrolidin-2-yl)-1H-benzimidazole-4-carboxamide Crystalline Form 1] | most thermodynamically stable crystalline form of ABT-888 | 
C[C@]1(c2nc3c(C(N)=O)cccc3[nH]2)CCCN1 [ABT-888, 2-((R)-2-methylpyrrolidin-2-yl)-1H-benzimidazole-4-carboxamide] |  | limit tumor growth
